Measurements from paper PMC12064818, “A general assay platform to study protein pharmacology using ligand-dependent structural dynamics” (Nature Communications, 2025).

Target: firefly luciferase (FLuc) (Photinus pyralis, UniProt P08659)
Test: Thermal shift profiles (Thermofluor assay), FLuc;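 also: normalized first derivative of fluorescence (dF/dT) at the stated temperature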
Format: binding
Design: unit of the concentration uncertain
Conditions: 52.782 °C; compound 100 (unit uncertain)
Protocol: Thermal stabilization of proteins in the presence of the ligands were determined using Thermofluor technique. MicroAmp optical 384-well plates (Applied Biosystems by Life Technologies), ViiA 7 real-time PCR instrument (Applied Biosystems by Life Technologies) and SYPRO Orange (Life Technologies) were used to test the samples. The final concentration of the protein, compounds and dye were maintained at 5 µM, 100 µM and 10x respectively in a 20 µL reaction volume. […] Proteins were added to the 384-well plate first followed by the compounds. Samples were incubated for 10 mins at room temperature and protected from light. […] The plate was sealed with a MicroAmp optical adhesive film, centrifuged at 1500 RPM for 2 min, and then loaded onto the ViiA 7 real–time PCR instrument for fluorescence intensity measurements upon heating the sample from 25 to 95 °C at 1 °C/min increments. Data was exported to excel, fluorescence intensity data and its first derivative were normalized and plotted using GraphPad Prism to determine Tm. […]
6 Read ViiA7 Read the therm al unfolding of the protein with ViiA7 real-tim e PCR system
4 Prepare 50X dye in PBS: 1 μL Sypro Orange 5000X (Life Technologies), 99 μL ddH2O. Add 4 μL to each well Read the m elting tem perature from 25 to 95 °C using ViiA 7 real tim e PCR instrum ent by following the below instructions Perform therm al denaturation in 384-well assay plate […]

Chain of firefly luciferase (FLuc) (P08659 whole entry): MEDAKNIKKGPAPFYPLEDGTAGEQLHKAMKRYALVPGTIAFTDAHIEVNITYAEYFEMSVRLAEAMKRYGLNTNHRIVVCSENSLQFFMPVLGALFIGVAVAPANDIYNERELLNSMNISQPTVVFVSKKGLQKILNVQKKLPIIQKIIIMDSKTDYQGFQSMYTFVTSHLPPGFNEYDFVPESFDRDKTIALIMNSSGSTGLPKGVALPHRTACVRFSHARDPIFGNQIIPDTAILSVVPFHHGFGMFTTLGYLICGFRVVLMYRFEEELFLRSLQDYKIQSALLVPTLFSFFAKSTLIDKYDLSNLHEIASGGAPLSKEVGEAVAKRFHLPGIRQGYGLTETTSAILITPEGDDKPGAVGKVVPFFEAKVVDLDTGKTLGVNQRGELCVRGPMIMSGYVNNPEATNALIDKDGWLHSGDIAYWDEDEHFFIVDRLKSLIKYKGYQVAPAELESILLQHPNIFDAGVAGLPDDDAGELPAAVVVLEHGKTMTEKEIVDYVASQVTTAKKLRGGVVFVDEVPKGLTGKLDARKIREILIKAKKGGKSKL

Compound | Thermofluor FLuc, No ATP
COc1ccc(NC(=O)C2CCN(C(=O)c3ncn4c3COC(c3ccccc3)C4)CC2)cc1Cl (centres unmarked) [NCGC 00449919] | 0.994
CC(CNC(=O)C1CCN(C(=O)c2ncn3c2COC(c2ccccc2)C3)CC1)c1ccccc1 (centres unmarked) [NCGC 00449795] | 0.992
